The values below come from US5902794A (priority 1997, dated 1999).

As usually defined, the inhibition is the change of the read-out against control, counted positive when it falls. What is called IC50 is the concentration that inhibits the measured activity by half. Higher therefore signals weaker potency.

Experiment [1] relates to HL-60 cells. The experiment is described as follows: differentiation markers (surface antigens) in HL-60 cells. It counts as cell-based, human. Particulars: three days.
Experiment [2] deals with p21 ras protein (MCF-7 cells). As to the kind of experiment: Western blotting of p21 ras protein in MCF-7 cells. Particulars: 10 microM, three days. It is filed as cell-based, human. The method, then: Western blotting of p21 protein was performed as described below. […] V is cell lysate from Ha-MuSV-transformed NIH3T3 clone 13-3B-4. M, marker proteins of known molecular weight.
Cellular proteins present in cell extracts were separated by 12% SDS-PAGE and transferred to nitrocellulose sheets in transfer buffer (25 mM Tris, 192 mM glycine, 20% methanol, pH 7.4). Nitrocellulose sheets were washed and first incubated with 3% bovine serum albumin in NTE-NP40 (50 mM Tris-HCl, pH 7.5, 150 mM NaCl, 2 mM EDTA, 0.1% Nonidet P-40) for three hours at 37° C. and then sequentially incubated with medium containing p21 monoclonal antiserum Y13-259 directed against the Ha-MuSV-encoded p21 for sixteen hours at 4° C., rabbit anti-rat IgG for 2.5 hours in an ice-water bath, and 5×10^5 cpm/ml ^125 I-protein A for one hour in an ice-water bath. The nitrocellulose sheets were air-dried and exposed to Kodak XAR film for 12-36 hours at -20° C. Comparison of the resulting autoradiograms with others in which normal rat serum was substituted for p21 monoclonal antibody permitted identification of p21. To provide a reference p21, cell lysates were prepared from NIH 3T3 clone 13-3B-4 that had been transfected with Ha-MuSV DNA.
The levels of p21 protein are expressed relative to the p21 level in the untreated control cells, which is set equal to 1.0 O.D.
Background: Immunoblotting shows a protein as a band on a membrane.

Experiment [3] relates to c-myc protein. The experiment is described as follows: c-myc protein level, Western blotting (FIG. 9B). It counts as cell-based, human. Particulars: 5 micromol/L, three days. The method, then:
The cells were grown in suspension culture in RPMI 1640 medium supplemented with 10% fetal bovine serum, penicillin (50 U/ml), streptomycin ([…]), 10 mmol/L HEPES buffer, and extra glutamine. […] Surface antigen analysis of HL-60 cells was performed by flow cytometry using a panel of monoclonal antibodies reactive with either myeloid cells or monocytic cells. Terminal deoxynucleotidyl transferase (TdT) was assayed by an immunoperoxidase method using a TdT fluorescence kit. Western blotting of c-myc protein was performed using c-myc antibody 15206D11 (Scripps Clinic and Research Foundation, LaJolla, Calif.).
M marker proteins of known molecular weight. […] The resulting supernatants were used as cell lysates. […] ND=nondetectable.

The subject of experiment [4] is R^I cAMP receptor protein (MDA-MB-231). As to the kind of experiment: photoaffinity labelling of R^I cAMP receptor protein, MDA-MB-231. It counts as cell-based, human. To be noted: 10 microM, 3 days; control 1.0. The method, then:
(§1) M is marker proteins of known molecular weight.
(§2) The incubations were carried out at 23° C. for 60 minutes in 96-well immunoplates. The reaction mixtures were then irradiated for 30 seconds at 254 nm, placing a Mineralite UVS-11 hand lamp directly onto the plate. The samples were mixed with 25 microliters of 3× sample buffer (3% SDS, 15% beta-mercaptoethanol, 30 mM Tris, 30% glycerol, 1% bromophenol blue saturated solution), boiled for 3 minutes, and centrifuged at 700×g for five minutes. The samples containing 50-100 micrograms of protein were subjected to 0.05% SDS-12% PAGE. The gels were fixed, dried, and exposed to X-ray films overnight. The protein concentrations were determined by the method of Lowry et al., (J. Biol. Chem. 193: 265-275, 1951) with bovine serum albumin as standard.
(§3) The levels of the receptor proteins are expressed relative to the R^I level in the untreated control cells of MDA-MB-231 and LS-174T, which are each set equal to 1.0 O.D.; the scale was expanded to differentiate the lower intensity bands.

In experiment [5] the test system is R^I receptor. To be noted: cited from earlier work.
In experiment [6] the test system is R^I and R^II cAMP receptor proteins in breast (MDA-MB-231) and colon (LS-174T) cancer cells. The experiment is described as follows: R^I and R^II cAMP receptor protein levels in breast and colon cancer lines (FIG. 6). It counts as cell-based, human. The method, then:
as §1, §2

Experiment [7] deals with LS-174T colon cancer line. The experiment is described as follows: growth inhibition and release from inhibition, LS-174T (FIG. 3). It is filed as cell-based, human. The method, then:
1×10^5 cells/60 mm dish were seeded, and 24 hours later (Day 0), the medium was removed and fresh medium and additives were added then and every 48 hours thereafter. […] The triplicate cell count for each experimental point never varied by more than 10%.
(§4) All breast cancer cell lines were grown in IMEM supplemented with 10% fetal bovine serum, 20 mM HEPES, penicillin-streptomycin, and extra glutamine. Colon carcinoma cell lines were grown in EMEM supplemented with 10% FBS, EMEM, NEAA, HEPES 20 mM, extra glutamine, and penicillin-streptomycin. The cells were grown at 37° C. in humidified incubators in an atmosphere of 5% CO2.

Experiment [8] has as its system DMBA-1. As to the kind of experiment: growth of transplantable DMBA-1 rat mammary carcinoma. It is filed as in vivo. To be noted: pellet with 10 mg cAMP analogue, day 7. The method, then:
DMBA-1, a variant of primary hormonedependent DMBA tumor,
hormoneindependent and transplantable.
8Cl-cAMP and DBcAMP were given as a 20mg pellet consisting of 10 mg of […]

The test system of experiment [9] is mammary tumor inductions by DMBA. As to the kind of experiment: DMBA mammary tumor induction (FIG. 8). It is filed as in vivo. To be noted: 10 mg pellet one day before DMBA.
For experiment [10], the system named is MCF-7 ras breast cancer cell line. The experiment is described as follows: synergistic growth inhibition by C-6 and C-8 analogue combination. To be noted: Homo sapiens, MCF7; alone, 1.0 μM; read-out: percentage growth inhibition of analogue added alone. It is filed as cell-based. The method, then:
as §4
(§5) For cell growth experiments, 2-3×10^5 cells/60 mm dish were seeded, and 24 hours later (Day 0), the medium was removed, and fresh medium and the additives were added then and every 48 hours thereafter The compounds of the present invention were added using 100× concentrated stock solutions. At desired times, cell counts in duplicate were performed on a Coulter counter after harvesting the cells with gentle trypsinization.
Synergism quotient was defined as the net growth inhibitory effect of the analogue combination divided by the sum of the net analogue effects on growth inhibition A quotient of >1 indicates a synergistic effect, while a quotient of <1 indicates an antagonistic effect.
Synergism of growth inhibition was determined by treatment of
cells with C-6 analogues and C-8 analogues alone and in combination at
Day 0 and Day 2 and counting the cell number at Day 4

The subject of experiment [11] is R^II cAMP receptor protein (LS-174T). As to the kind of experiment: photoaffinity labelling of R^II cAMP receptor protein, LS-174T. It is filed as cell-based, human. Particulars: 10 microM, 3 days; relative to control R^I. As for the experimental part:
as §1, §2, §3

Experiment [12] concerns R^II cAMP receptor protein (MDA-MB-231). As to the kind of experiment: photoaffinity labelling of R^II cAMP receptor protein, MDA-MB-231. To be noted: 10 microM, 3 days; relative to control R^I. It is filed as cell-based, human. As for the experimental part:
as §1, §2, §3

In experiment [13] the test system is LS-174T. As to the kind of experiment: growth of LS-174T cells. It is filed as cell-based. To be noted: Homo sapiens, LS174T, 72 h; 10 microM, 3 days. As for the experimental part:
as §1, §4, §5

The subject of experiment [14] is HL-60. The experiment is described as follows: growth inhibition of HL-60. It is filed as cell-based, human.

As for `Nc1ncnc2c1nc(Cl)n2[C@@H]1O[C@@H]2COP(=O)(O)O[C@H]2[C@H]1O` [8-Cl-cAMP], in experiment [1], the “markers of immature progenitor cells (My7, My9), in words” value is “decrease in markers related to the immature progenitor cells” and the “monocyte-specific surface antigens (MO2, OKM5), in words” value is on record as “marked increase in the expression”. Also, in experiment [2], the “p21 level, in words” value is recorded as “markedly decreased level of p21”. In experiment [3], the “c-myc protein level, in words” value was “marked reduction of c-myc protein level”. Further, in experiment [4], the “R^I relative level” value was 0.25 ± 0.03. For the same molecule, the “site selectivity of binding, R^I” value in experiment [5] is reported as “binds to site 2”. Also, in [6] (densitometry), the “increase in the ratio of R^II to R^I” value is “two- to three-fold increase”. Further, in experiment [6] (three days, 10 microM), the “48,000 R^I receptor protein, in words” value is “concomitant decrease” and the “52,000 MW (R^II) receptor protein, in words” value is given as “increased appreciably”. Moreover, the “mechanism of growth inhibition / cell viability” value in [7] was “decrease in the rate of replication without affecting cell viability”. The “cell growth during treatment” value in experiment [7] (8-Cl-cAMP 10 microM or 8-Cl-adenosine 5 microM) is listed as “marked reduction in cell growth”. In experiment [7] (after removal of additives), the “growth after cessation of treatment” value is on record as “resumed growth almost immediately”. Further, the “Change in mean tumor volume” value in [8] was determined as 1.60 cm^3. Further, the “reduction in the total number of tumors produced” value in experiment [9] is 70%. Further, the inhibition at 1 µM in experiment [10] is 20%. In experiment [11], the “R^II relative level” value worked out at 0.25 ± 0.02. Besides, the “R^II relative level” value in experiment [12] worked out at 0.15 ± 0.01. Moreover, the activity at 10 µM in [13] was determined as 30%. Moreover, the “growth inhibition (footnote)” value in [14] (20 μmol/L) is on record as “Seventy percent growth inhibition”. Besides, the IC50 in [14] (Homo sapiens, HL-60) amounted to 100 µM.
